# Test results from paper PMC6359543, “Efficacy of Azatyrosine-Phenylbutyric Hydroxamides, a Histone Deacetylase Inhibitor, on Chemotherapy-Induced Gastrointestinal Mucositis” (International Journal of Molecular Sciences, 2019).
# Like-named read-outs stand apart in the source and are kept apart here.
# Columns and labels:
# HDAC1 = target: T1, HDAC1 (Homo sapiens, UniProt Q13547); assay: HDAC fluorometric activity assay, HDAC1; assay type: biochemical
# T1 construct: purchased Enzo Life Sciences, Farmingdale, NY, USA
# Method: (§1) Pan HDAC enzyme (all the known class I HDACs-HDAC1, HDAC2, HDAC3, HDAC8 and class II HDACs 4-7, 9 and 10), HDAC subtype 1, 3 and 4 activity were determined by using the HDAC fluorometric cellular activity assay (Enzo Life Sciences, Farmingdale, NY, USA) according to the manufacturer’s protocol. […] Percent activity for each of the test compounds is calculated as follows:
# (§2) Activity = {(Sc − B)/(S° − B)} × 100. […] IC50 was then calculated and represented as mean ± SD.
# HDAC3 = target: T2, HDAC3 (Homo sapiens, UniProt O15379); assay: HDAC fluorometric activity assay, HDAC3; assay type: biochemical
# T2 construct: purchased Enzo Life Sciences, Farmingdale, NY, USA
# Method: as §1, §2
# HDAC4 = target: T3, HDAC4 (Homo sapiens, UniProt P56524); assay: HDAC fluorometric activity assay, HDAC4; assay type: biochemical
# T3 construct: purchased Enzo Life Sciences, Farmingdale, NY, USA
# Method: as §1, §2
# IEC-6 cells [1] = assay: LPS-induced inflammatory protein expression in IEC-6 cells (Western blot); assay type: cell-based, Rat; conditions: LPS 500 ng/mL 8 h, AzP 1–20 μM
# Method: Figure 5 Hierarchical clustering and KEGG analyses of gene profiles of the AzP-manipulated IEC-6 cells. (A) Two independent experiments were performed, samples were named C1, C2 as control group (1% dimethyl sulfoxide (DMSO)); LPS1, LPS2 as lipopolysaccharide (LPS) 500 ng/mL group; LPS + AzP1, LPS + AzP2 as LPS 500 ng/mL and AzP 20 μM group. Heat maps showing the clustering analysis of the IEC-6 cells with different treatments (1% DMSO, LPS 500 ng/mL and/or AzP 20 μM) indicates up-regulation (red), down-regulation (green), and mean gene expression (black). […] IEC-6 cells were treated with LPS 500 ng/mL for 8 h and/or AzP 1–20 μM, Western blot performed and immunoblotted with several inflammatory protein expressions including MMP-9 (C), IL-1β (D), iNOS (E), and IL-6 (F). Density was measured and calculated. ### p < 0.001 as compared with the control, ## p < 0.01 as compared with the control, # p < 0.05 as compared with the control, * p < 0.05 as compared with the LPS-treated group, ** p < 0.01 as compared with the LPS-treated group and *** p < 0.001 as compared with LPS-treated group.
# IEC-6 cells were incubated in different AzP concentrations with/without LPS stimulation for 24 h. The homogenate from cells or tissues was then centrifuged at 14,000× g for 10 min at 4 °C and the supernatant was collected. Protein separation was performed using 10% reducing SDS-PAGE, electrotransferred onto polyvinylidene difluoride (PVDF), and immunoblotted with antibodies against inflammatory proteins as well as β-actin as control. Densitometry was performed using BioLight software V2000.01 (Uhldingen-Mühlhofen, Germany). The optical density of specific protein was normalized to an internal control and expressed as a ratio to control.
# [2] = system: Salmonella typhimurium TA98; assay: Salmonella/microsome reversion assay (Ames test), TA98; assay type: cell-based
# [3] = system: Salmonella typhimurium TA102
# Method: Five strains of Salmonella typhimurium, TA98, TA102, TA100, TA1537, and TA1535, were obtained from Moltox (Boone, NC, USA). Mutagenicity was evaluated by the incorporation method in the presence or absence of S9 metabolic activation. A volume of 100 µL of each test bacterial culture (10^9 cells/mL), 2 mL soft agar (0.6% agar, 0.5% NaCl, 5 mM histidine, and […], pH 7.4, 40–50 °C), 0.5 mL S9 mixture (if necessary), and AzP were mixed well in a test tube. […] The revertant colonies were counted, and a positive mutagenic response was identified when (i) the number of revertants was at least double the spontaneous yield; (ii) a statistical significance (p ≤ 0.05) was found; and (iii) a reproducible positive dose response was present.
# [4] = system: Salmonella typhimurium TA1537; assay: Salmonella/microsome reversion assay (Ames test), TA1537; assay type: cell-based
# IEC-6 cells [5] = assay: Cisplatin-reduced IEC-6 cell viability; assay type: cell-based, Rat; conditions: data not shown
# T2 sequence (O15379 whole entry, species assumed): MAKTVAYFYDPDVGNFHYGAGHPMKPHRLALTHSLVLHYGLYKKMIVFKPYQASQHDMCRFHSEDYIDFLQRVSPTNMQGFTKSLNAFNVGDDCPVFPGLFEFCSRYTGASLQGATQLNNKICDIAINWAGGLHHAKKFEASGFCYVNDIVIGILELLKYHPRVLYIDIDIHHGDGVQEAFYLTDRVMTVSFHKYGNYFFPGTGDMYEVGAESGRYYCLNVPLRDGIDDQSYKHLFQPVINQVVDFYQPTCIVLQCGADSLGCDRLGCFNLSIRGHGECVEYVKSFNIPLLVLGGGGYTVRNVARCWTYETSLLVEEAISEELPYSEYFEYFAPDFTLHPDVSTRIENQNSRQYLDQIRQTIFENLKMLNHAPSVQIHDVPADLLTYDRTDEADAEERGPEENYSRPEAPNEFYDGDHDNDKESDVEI
# T2 sequence (O75376 395-489 partner limits assumed, species assumed): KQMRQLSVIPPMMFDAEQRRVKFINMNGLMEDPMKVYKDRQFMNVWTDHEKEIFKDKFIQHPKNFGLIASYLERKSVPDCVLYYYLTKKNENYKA
# T3 sequence (P56524 whole entry, species assumed): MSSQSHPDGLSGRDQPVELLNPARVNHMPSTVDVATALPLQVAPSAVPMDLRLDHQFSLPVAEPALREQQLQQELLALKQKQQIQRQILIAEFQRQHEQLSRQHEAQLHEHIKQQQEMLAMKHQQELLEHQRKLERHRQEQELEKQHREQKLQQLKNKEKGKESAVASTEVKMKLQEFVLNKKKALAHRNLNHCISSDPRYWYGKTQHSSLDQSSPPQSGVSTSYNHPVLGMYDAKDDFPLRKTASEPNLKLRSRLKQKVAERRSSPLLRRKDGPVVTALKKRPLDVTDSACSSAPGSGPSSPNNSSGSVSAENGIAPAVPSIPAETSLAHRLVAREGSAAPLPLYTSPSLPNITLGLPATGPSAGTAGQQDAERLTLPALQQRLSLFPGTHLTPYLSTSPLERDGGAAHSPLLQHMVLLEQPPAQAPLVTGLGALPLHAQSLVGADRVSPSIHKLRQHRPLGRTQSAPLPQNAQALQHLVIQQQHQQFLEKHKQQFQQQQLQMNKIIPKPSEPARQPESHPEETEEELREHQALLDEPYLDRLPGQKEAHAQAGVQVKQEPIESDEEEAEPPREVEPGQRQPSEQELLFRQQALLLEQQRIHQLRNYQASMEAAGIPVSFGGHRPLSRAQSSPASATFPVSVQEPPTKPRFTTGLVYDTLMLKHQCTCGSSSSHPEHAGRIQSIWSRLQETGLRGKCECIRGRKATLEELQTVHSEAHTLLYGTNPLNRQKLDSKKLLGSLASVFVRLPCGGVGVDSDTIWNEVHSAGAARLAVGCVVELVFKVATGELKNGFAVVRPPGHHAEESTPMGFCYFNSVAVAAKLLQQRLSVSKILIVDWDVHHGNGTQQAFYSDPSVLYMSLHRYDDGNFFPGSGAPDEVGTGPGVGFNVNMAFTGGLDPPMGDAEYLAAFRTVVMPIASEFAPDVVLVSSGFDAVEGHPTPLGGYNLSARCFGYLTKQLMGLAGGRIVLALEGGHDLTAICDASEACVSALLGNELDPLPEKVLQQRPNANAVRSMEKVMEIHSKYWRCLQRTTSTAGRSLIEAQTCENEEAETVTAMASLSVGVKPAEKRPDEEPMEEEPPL
# T1 sequence (Q13547 whole entry, species assumed): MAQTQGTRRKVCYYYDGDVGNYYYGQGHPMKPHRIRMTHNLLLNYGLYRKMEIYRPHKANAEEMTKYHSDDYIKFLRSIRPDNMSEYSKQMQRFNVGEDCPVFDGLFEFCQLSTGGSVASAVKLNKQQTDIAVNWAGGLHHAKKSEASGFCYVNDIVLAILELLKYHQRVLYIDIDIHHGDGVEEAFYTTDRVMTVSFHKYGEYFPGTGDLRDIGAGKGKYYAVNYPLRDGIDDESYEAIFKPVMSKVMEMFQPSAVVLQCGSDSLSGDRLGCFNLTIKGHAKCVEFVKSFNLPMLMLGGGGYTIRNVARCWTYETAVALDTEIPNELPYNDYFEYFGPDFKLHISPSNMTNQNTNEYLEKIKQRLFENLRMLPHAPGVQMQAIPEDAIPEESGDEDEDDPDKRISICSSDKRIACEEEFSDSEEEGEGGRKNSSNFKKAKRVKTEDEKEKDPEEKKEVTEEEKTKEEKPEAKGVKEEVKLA
compound,measurement,setting,value
"CC(C)(C)OC(=O)NC(Cc1ccc(OCc2ccccc2)cn1)C(=O)Nc1ccc(CCCC(=O)NO)cc1 (stereo not shown) [AzP, Azatyrosine-phenylbutyric hydroxamides]",IC50,HDAC1,3.44 ± 0.68 µM
same,IC50,HDAC3,660 ± 99 nM
same,IC50,HDAC4,1970 ± 110 nM
same,LPS-induced IL-1β protein expression,IEC-6 cells [1],concentration-dependently inhibited
same,LPS-induced IL-6 protein expression,IEC-6 cells [1],concentration-dependently inhibited
same,LPS-induced MMP9 protein expression,IEC-6 cells [1],concentration-dependently inhibited
same,protein expression of iNOS,IEC-6 cells [1],unaffected
same,"Ames test result, TA98 (-S9)",[2]; -S9,Negative
same,Revertant colonies per plate (+S9) TA98,[2]; AzP 0.00245 mg/plate,59.7±3.8
same,Revertant colonies per plate (-S9) TA98,[2]; AzP 0.00245 mg/plate,42±4.6
same,Revertant colonies per plate (+S9) TA98,[2]; AzP 0.0049 mg/plate,58.3±4.7
same,Revertant colonies per plate (-S9) TA98,[2]; AzP 0.0049 mg/plate,29±5.7
same,Revertant colonies per plate (+S9) TA98,[2]; AzP 0.0098 mg/plate,56.3±3.4
same,Revertant colonies per plate (-S9) TA98,[2]; AzP 0.0098 mg/plate,24±5.4
same,Revertant colonies per plate (+S9) TA98,[2]; AzP 0.0195 mg/plate,59.7±0.7
same,Revertant colonies per plate (-S9) TA98,[2]; AzP 0.0195 mg/plate,33.7±3
same,Revertant colonies per plate (+S9) TA98,[2]; AzP 0.0391 mg/plate,62.7±2.3
same,Revertant colonies per plate (-S9) TA98,[2]; AzP 0.0391 mg/plate,33.7±2.8
same,Revertant colonies per plate (+S9) TA98,[2]; AzP 0.0781 mg/plate,56.3±2.2
same,Revertant colonies per plate (+S9) TA98,[2]; AzP 0.156 mg/plate,61±1.2
same,Revertant colonies per plate (+S9) TA98,[2]; AzP 0.3125 mg/plate,69.7±5.8
same,Revertant colonies per plate (+S9) TA98,[2]; AzP 0.625 mg/plate,64±2.9
same,"Ames test result, TA98 (|S9)",[2]; second S9 group,Negative
same,"Ames test result, TA102 (-S9)",[3]; -S9,Negative
same,Revertant colonies per plate (+S9) TA102,[3]; AzP 0.00245 mg/plate,219.7±6.9
same,Revertant colonies per plate (-S9) TA102,[3]; AzP 0.00245 mg/plate,141±4.4
same,Revertant colonies per plate (+S9) TA102,[3]; AzP 0.0049 mg/plate,225.7±4.5
same,Revertant colonies per plate (-S9) TA102,[3]; AzP 0.0049 mg/plate,142.3±4.7
same,Revertant colonies per plate (+S9) TA102,[3]; AzP 0.0098 mg/plate,215±4
same,Revertant colonies per plate (-S9) TA102,[3]; AzP 0.0098 mg/plate,140.3±7.9
same,Revertant colonies per plate (+S9) TA102,[3]; AzP 0.0195 mg/plate,230.7±2
same,Revertant colonies per plate (-S9) TA102,[3]; AzP 0.0195 mg/plate,139.5±5.6
same,Revertant colonies per plate (+S9) TA102,[3]; AzP 0.0391 mg/plate,212.2±9.2
same,Revertant colonies per plate (-S9) TA102,[3]; AzP 0.0391 mg/plate,138.3±8.5
same,Revertant colonies per plate (+S9) TA102,[3]; AzP 0.0781 mg/plate,233.3±9.8
same,Revertant colonies per plate (-S9) TA102,[3]; AzP 0.0781 mg/plate,152.7±11.3
same,Revertant colonies per plate (+S9) TA102,[3]; AzP 0.156 mg/plate,217.3±4.8
same,Revertant colonies per plate (+S9) TA102,[3]; AzP 0.3125 mg/plate,230.1±8.4
same,Revertant colonies per plate (+S9) TA102,[3]; AzP 0.625 mg/plate,217.4±7.3
same,"Ames test result, TA102 (|S9)",[3]; second S9 group,Negative
same,"Ames test result, TA1537 (-S9)",[4]; -S9,Negative
same,Revertant colonies per plate (+S9) TA1537,[4]; AzP 0.00245 mg/plate,32.3±3
same,Revertant colonies per plate (-S9) TA1537,[4]; AzP 0.00245 mg/plate,15±0.5
same,Revertant colonies per plate (+S9) TA1537,[4]; AzP 0.0049 mg/plate,35.3±2.2
same,Revertant colonies per plate (-S9) TA1537,[4]; AzP 0.0049 mg/plate,10.7±0.9
same,Revertant colonies per plate (+S9) TA1537,[4]; AzP 0.0098 mg/plate,29.3±2.2
same,Revertant colonies per plate (-S9) TA1537,[4]; AzP 0.0098 mg/plate,10±0.6
same,Revertant colonies per plate (+S9) TA1537,[4]; AzP 0.0195 mg/plate,27.3±2.7
same,Revertant colonies per plate (-S9) TA1537,[4]; AzP 0.0195 mg/plate,10±2
same,Revertant colonies per plate (+S9) TA1537,[4]; AzP 0.0391 mg/plate,22.1±2.5
same,Revertant colonies per plate (-S9) TA1537,[4]; AzP 0.0391 mg/plate,11.8±6
same,Revertant colonies per plate (+S9) TA1537,[4]; AzP 0.0781 mg/plate,16±2.5
same,Revertant colonies per plate (-S9) TA1537,[4]; AzP 0.0781 mg/plate,12±4.9
same,Revertant colonies per plate (+S9) TA1537,[4]; AzP 0.156 mg/plate,18±1
same,Revertant colonies per plate (-S9) TA1537,[4]; AzP 0.156 mg/plate,14.7±2
same,"Ames test result, TA1537 (|S9)",[4]; second S9 group,Negative
same,influence on cisplatin-reduced cell viability,IEC-6 cells [5],did not influence
same,"structure of intestinal mucosa, villus length and crypt depth (H&E)","C57BL/6 mice; 250 mg/kg/day group, days 3 and 5",restored
same,Relative mean body weight (day 0 = 100%),"C57BL/6 mice; day 5, AzP 50 mg/kg gavage days −1, 0, 1 + cisplatin 11 mg/kg",78.7 ± 4.7%
same,Relative mean body weight (day 0 = 100%),"C57BL/6 mice; day 5, AzP 100 mg/kg gavage days −1, 0, 1 + cisplatin 11 mg/kg",80.5 ± 3.4%
same,Relative mean body weight (day 0 = 100%),"C57BL/6 mice; day 5, AzP 250 mg/kg gavage days −1, 0, 1 + cisplatin 11 mg/kg",89.1 ± 8.1%
same,MCP-1 expression in intestine (IHC),"C57BL/6 mice; day 5, cisplatin 11 mg/kg",dose-dependently reduced
same,Serum IL-6 level (ELISA),"C57BL/6 mice; day 5, cisplatin 11 mg/kg",inhibit cisplatin-induced IL-6 production in a dose-dependent manner
same,TNF-α expression in intestine (IHC),"C57BL/6 mice; day 5, cisplatin 11 mg/kg",dose-dependently reduced
